Laboratory results reported in US20240261249A1, “NOVEL SQUARAMIDE DERIVATIVE AND USE THEREOF” (PUSAN NATIONAL UNIVERSITY INDUSTRY-UNIVERSITY COOPERATION …, priority 2021, published 2024).

The molecules below were run on Phospho-eIF2α (Ser51) (assay: Phospho-eIF2α (Ser51) Sandwich ELISA in K562 cells). Conditions: Homo sapiens, K562, 6 h, serum-free RPMI, 10 μM compound, control = 1, read-out: eIF2α phosphorylation, absorbance standardized to control (DMSO-treated) set to 1, at 10 μM.
Assay type: cell-based
Experimental: Pathscan Phospho-eIF2α (Ser51) Sandwich ELISA Kit #7286 from Cell signaling was used. The K562 cell line was cultured in serum-free RPMI medium at 37° C. in the presence of 5% CO2. Cells were treated with test compounds at a concentration of 10 μM. Six hours after compound treatment, the cells were lysed with a lysis buffer included in the kit to obtain 50 μg of protein by quantification. Afterwards, ELISA assay was performed according to the manufacturer's protocol to obtain absorbance. The absorbance for each obtained compound was standardized to a value of which the control (DMSO-treated) is set to 1.
In the case of `CS(=O)(=O)c1ccc(O[C@H]2CC[C@H](Nc3c(Nc4ccccc4Cl)c(=O)c3=O)CC2)cc1` [Compound 69, 3-((2-Chlorophenyl)amino)-4-(((1,4-trans)-4-(4-(methylsulfonyl)phenoxy)cyclohexyl)amino)cyclobut-3-ene-1,2-dione], the activity at 10 µM is reported as 101%.
Work on `N#Cc1ccc(O[C@H]2CC[C@H](Nc3c(Nc4ccccc4)c(=O)c3=O)CC2)cc1` [Compound 9, 4-(((1,4-trans)-4-((3,4-Dioxo-2-(phenylamino)cyclobut-1-en-1-yl)amino)cyclohexyl)oxy)benzonitrile] yielded an activity at 10 µM of 88%.
For `N#Cc1ccc(O[C@H]2CC[C@H](Nc3c(Nc4ccc(C(F)(F)F)cc4)c(=O)c3=O)CC2)cc1` [Compound 47, 4-(((1,4-trans)-4-((3,4-Dioxo-2-((4-(trifluoromethyl)phenyl)amino)cyclobut-1-en-1-yl)amino)cyclohexyl)oxy)benzonitrile], the activity at 10 µM was 51%.
`N#Cc1ccc(O[C@H]2CC[C@H](Nc3c(Nc4ccc(Cl)cc4)c(=O)c3=O)CC2)cc1` [Compound 43, 4-(((1,4-trans)-4-((2-((4-Chlorophenyl)amino)-3,4-dioxocyclobut-1-en-1-yl)amino)cyclohexyl)oxy)benzonitrile] showed an activity at 10 µM of 87%.
`CC(C)(C)c1ccccc1Nc1c(N[C@H]2CC[C@H](Oc3ccc([N+](=O)[O-])cc3)CC2)c(=O)c1=O` [Compound 76, 3-((2-(tert-Butyl)phenyl)amino)-4-(((1,4-trans)-4-(4-nitrophenoxy)cyclohexyl)amino)cyclobut-3-ene-1,2-dione] gave an activity at 10 µM of 139%.
`COC(=O)c1ccc(Nc2c(N[C@H]3CC[C@H](Oc4ccc(C(F)(F)F)cc4)CC3)c(=O)c2=O)cc1` [Compound 58, Methyl 4-((3,4-dioxo-2-(((1,4-trans)-4-(4-(trifluoromethyl)phenoxy)cyclohexyl)amino)cyclobut-1-en-1-yl)amino)benzoate] gave an activity at 10 µM of 97%.
For `COc1ccccc1Nc1c(N[C@H]2CC[C@H](Oc3ccc(C(F)(F)F)cc3)CC2)c(=O)c1=O` [Compound 78, 3-((2-Methoxyphenyl)amino)-4-(((1,4-trans)-4-(4-(trifluoromethyl)phenoxy)cyclohexyl)amino)cyclobut-3-ene-1,2-dione], the activity at 10 µM was 213%.
In the case of `O=c1c(Nc2ccccc2Cl)c(N[C@H]2CC[C@H](Oc3ccc(C(F)(F)F)cc3)CC2)c1=O` [Compound 66, 3-((2-Chlorophenyl)amino)-4-(((1,4-trans)-4-(4-(trifluoromethyl)phenoxy)cyclohexyl)amino)cyclobut-3-ene-1,2-dione], the activity at 10 µM is reported as 159%.
`O=c1c(Nc2ccc(C(F)(F)F)cc2)c(N[C@H]2CC[C@H](Oc3ccc(C(F)(F)F)cc3)CC2)c1=O` [Compound 46, 3-(((1,4-trans)-4-(4-(Trifluoromethyl)phenoxy)cyclohexyl)amino)-4-((4-(trifluoromethyl)phenyl)amino)cyclobut-3-ene-1,2-dione] gave an activity at 10 µM of 71%.
`O=c1c(Nc2ccc(F)cc2)c(N[C@H]2CC[C@H](Oc3ccc(C(F)(F)F)cc3)CC2)c1=O` [Compound 38, 3-((4-Fluorophenyl)amino)-4-(((1,4-trans)-4-(4-(trifluoromethyl)phenoxy)cyclohexyl)amino)cyclobut-3-ene-1,2-dione] gave an activity at 10 µM of 65%.
Work on `COc1cccc(Nc2c(N[C@H]3CC[C@H](Oc4ccc(C#N)cc4)CC3)c(=O)c2=O)c1` [Compound 34, 4-(((1,4-trans)-4-((2-((3-Methoxyphenyl)amino)-3,4-dioxocyclobut-1-en-1-yl)amino)cyclohexyl)oxy)benzonitrile] yielded an activity at 10 µM of 83%.
`COC(=O)c1ccc(Nc2c(N[C@H]3CC[C@H](Oc4ccc(C#N)cc4)CC3)c(=O)c2=O)cc1` [Compound 59, Methyl 4-((2-(((1,4-trans)-4-(4-cyanophenoxy)cyclohexyl)amino)-3,4-dioxocyclobut-1-en-1-yl)amino)benzoate] showed an activity at 10 µM of 83%.
`NS(=O)(=O)c1ccc(O[C@H]2CC[C@H](Nc3c(Nc4cccc(Cl)c4)c(=O)c3=O)CC2)cc1` [Compound 22, 4-(((1,4-trans)-4-((2-((3-Chlorophenyl)amino)-3,4-dioxocyclobut-1-en-1-yl)amino)cyclohexyl)oxy)benzenesulfonamide] was tested, and the activity at 10 µM was 219%.
`COc1ccc(Nc2c(N[C@H]3CC[C@H](Oc4ccc([N+](=O)[O-])cc4)CC3)c(=O)c2=O)cc1` [Compound 56, 3-((4-Methoxyphenyl)amino)-4-(((1,4-trans)-4-(4-nitrophenoxy)cyclohexyl)amino)cyclobut-3-ene-1,2-dione] was tested, and the activity at 10 µM was 227%.
`NS(=O)(=O)c1ccc(O[C@H]2CC[C@H](Nc3c(Nc4cccc(F)c4)c(=O)c3=O)CC2)cc1` [Compound 17, 4-(((1,4-trans)-4-((2-((3-Fluorophenyl)amino)-3,4-dioxocyclobut-1-en-1-yl)amino)cyclohexyl)oxy)benzenesulfonamide] gave an activity at 10 µM of 86%.
`COc1ccc(Nc2c(N[C@H]3CC[C@H](Oc4ccc(S(C)(=O)=O)cc4)CC3)c(=O)c2=O)cc1` [Compound 57, 3-((4-Methoxyphenyl)amino)-4-(((1,4-trans)-4-(4-(methylsulfonyl)phenoxy)cyclohexyl)amino)cyclobut-3-ene-1,2-dione] was tested, and the activity at 10 µM was 211%.
`O=c1c(Nc2ccc(F)cc2)c(N[C@H]2CC[C@H](Oc3ccc([N+](=O)[O-])cc3)CC2)c1=O` [Compound 40, 3-((4-Fluorophenyl)amino)-4-(((1,4-trans)-4-(4-nitrophenoxy)cyclohexyl)amino)cyclobut-3-ene-1,2-dione] showed an activity at 10 µM of 82%.
For `COc1cccc(Nc2c(N[C@H]3CC[C@H](Oc4ccc(S(N)(=O)=O)cc4)CC3)c(=O)c2=O)c1` [Compound 37, 4-(((1,4-trans)-4-((2-((3-Methoxyphenyl)amino)-3,4-dioxocyclobut-1-en-1-yl)amino)cyclohexyl)oxy)benzenesulfonamide], the activity at 10 µM was 67%.
For `NS(=O)(=O)c1ccc(O[C@H]2CC[C@H](Nc3c(Nc4cccc(C(F)(F)F)c4)c(=O)c3=O)CC2)cc1` [Compound 27, 4-(((1,4-trans)-4-((3,4-Dioxo-2-((3-(trifluoromethyl)phenyl)amino)cyclobut-1-en-1-yl)amino)cyclohexyl)oxy)benzenesulfonamide], the activity at 10 µM was 108%.
Work on `O=c1c(Nc2cccc(F)c2)c(N[C@H]2CC[C@H](Oc3ccc(C(F)(F)F)cc3)CC2)c1=O` [Compound 13, 3-((3-Fluorophenyl)amino)-4-(((1,4-trans)-4-(4-(trifluoromethyl)phenoxy)cyclohexyl)amino)cyclobut-3-ene] yielded an activity at 10 µM of 84%.
`O=c1c(Nc2ccc(Cl)cc2)c(N[C@H]2CC[C@H](Oc3ccc([N+](=O)[O-])cc3)CC2)c1=O` [Compound 44, 3-((4-Chlorophenyl)amino)-4-(((1,4-trans)-4-(4-nitrophenoxy)cyclohexyl)amino)cyclobut-3-ene-1,2-dione] showed an activity at 10 µM of 147%.
With `CS(=O)(=O)c1ccc(O[C@H]2CC[C@H](Nc3c(Nc4ccccc4C(F)(F)F)c(=O)c3=O)CC2)cc1` [Compound 73, 3-(((1,4-trans)-4-(4-(Methylsulfonyl)phenoxy)cyclohexyl)amino)-4-((2-(trifluoromethyl)phenyl)amino)cyclobut-3-ene-1,2-dione] the activity at 10 µM was 84%.
In the case of `COc1ccccc1Nc1c(N[C@H]2CC[C@H](Oc3ccc(S(C)(=O)=O)cc3)CC2)c(=O)c1=O` [Compound 81, 3-((2-Methoxyphenyl)amino)-4-(((1,4-trans)-4-(4-(methylsulfonyl)phenoxy)cyclohexyl)amino)cyclobut-3-ene-1,2-dione], the activity at 10 µM is reported as 152%.
`COc1ccccc1Nc1c(N[C@H]2CC[C@H](Oc3ccc([N+](=O)[O-])cc3)CC2)c(=O)c1=O` [Compound 80, 3-((2-Methoxyphenyl)amino)-4-(((1,4-trans)-4-(4-nitrophenoxy)cyclohexyl)amino)cyclobut-3-ene-1,2-dione] was tested, and the activity at 10 µM was 133%.
`CS(=O)(=O)c1ccc(O[C@H]2CC[C@H](Nc3c(Nc4ccccc4)c(=O)c3=O)CC2)cc1` [Compound 11, 3-(((1,4-trans)-4-(4-(Methylsulfonyl)phenoxy)cyclohexyl)amino)-4-(phenylamino)cyclobut-3-ene-1,2-dione] gave an activity at 10 µM of 94%.
With `O=c1c(Nc2cccc(F)c2)c(N[C@H]2CC[C@H](Oc3ccc([N+](=O)[O-])cc3)CC2)c1=O` [Compound 15, 3-((3-Fluorophenyl)amino)-4-(((1,4-trans)-4-(4-nitrophenoxy)cyclohexyl)amino)cyclobut-3-ene-1,2-dione] the activity at 10 µM was 81%.
In the case of `COc1cccc(Nc2c(N[C@H]3CC[C@H](Oc4ccc(S(C)(=O)=O)cc4)CC3)c(=O)c2=O)c1` [Compound 36, 3-((3-Methoxyphenyl)amino)-4-(((1,4-trans)-4-(4-(methylsulfonyl)phenoxy)cyclohexyl)amino)cyclobut-3-ene-1,2-dione], the activity at 10 µM is reported as 60%.
Molecule `CS(=O)(=O)c1ccc(O[C@H]2CC[C@H](Nc3c(Nc4ccc(F)cc4)c(=O)c3=O)CC2)cc1` [Compound 41, 3-((4-Fluorophenyl)amino)-4-(((1,4-trans)-4-(4-(methylsulfonyl)phenoxy)cyclohexyl)amino)cyclobut-3-ene-1,2-dione] has an activity at 10 µM of 62%.
With `O=c1c(Nc2ccccc2)c(N[C@H]2CC[C@H](Oc3ccc(C(F)(F)F)cc3)CC2)c1=O` [Compound 8, 3-(Phenylamino)-4-(((1,4-trans)-4-(4-(trifluoromethyl)phenoxy)cyclohexyl)amino)cyclobut-3-ene-1,2-dione] the activity at 10 µM was 95%.
`COc1ccc(Nc2c(N[C@H]3CC[C@H](Oc4ccc(C#N)cc4)CC3)c(=O)c2=O)cc1` [Compound 55, 4-(((1,4-trans)-4-((2-((4-Methoxyphenyl)amino)-3,4-dioxocyclobut-1-en-1-yl)amino)cyclohexyl)oxy)benzonitrile] gave an activity at 10 µM of 84%.
